The series deals with CCRIS mutagenicity, Ames/micronucleus/aberration tests. Briefly: CCRIS mutagenicity studies.
Setting [1] is: Test System: AMES SALMONELLA TYPHIMURIUM, Strain/Indicator: TA98, Metabolic Activation: NONE, Method: STANDARD PLATE.
Setting [2] is: Test System: AMES SALMONELLA TYPHIMURIUM, Strain/Indicator: TA98, Metabolic Activation: RAT, LIVER, S-9, AROCLOR 1254, Method: STANDARD PLATE.
[3] abbreviates: Test System: AMES SALMONELLA TYPHIMURIUM, Strain/Indicator: TA100, Metabolic Activation: NONE, Method: STANDARD PLATE.
The mark [4] stands for this setting: Test System: AMES SALMONELLA TYPHIMURIUM, Strain/Indicator: TA100, Metabolic Activation: RAT, LIVER, S-9, AROCLOR 1254, Method: STANDARD PLATE.
Setting [5] is: Test System: AMES SALMONELLA TYPHIMURIUM, Strain/Indicator: TA1535, Metabolic Activation: NONE, Method: STANDARD PLATE.
The mark [6] stands for this setting: Test System: AMES SALMONELLA TYPHIMURIUM, Strain/Indicator: TA1535, Metabolic Activation: RAT, LIVER, S-9, AROCLOR 1254, Method: STANDARD PLATE.
The mark [7] stands for this setting: Test System: AMES SALMONELLA TYPHIMURIUM, Strain/Indicator: TA1537, Metabolic Activation: NONE, Method: STANDARD PLATE.
Where [8] appears, read: Test System: AMES SALMONELLA TYPHIMURIUM, Strain/Indicator: TA1537, Metabolic Activation: RAT, LIVER, S-9, AROCLOR 1254, Method: STANDARD PLATE.

Each structure is given as a SMILES string. The source made the active and inactive calls. The rule behind the calls is not given here.

Take `CC1(C)[C@@H](O[C@H]2O[C@H](C(=O)O)[C@@H](O)[C@H](O)[C@H]2O[C@@H]2O[C@H](C(=O)O)[C@@H](O)[C@H](O)[C@H]2O)CC[C@]2(C)[C@H]3C(=O)C=C4[C@@H]5C[C@@](C)(C(=O)O)CC[C@]5(C)CC[C@@]4(C)[C@]3(C)CC[C@@H]12`: the mutagenic call (End Point: IN VIVO MICRONUCLEUS, Test System: BONE MARROW POLYCHROMATIC ERYTHROCYTES, Species: MOUSE, Strain/Sex: DDY/MALE, Route: IP) is “inactive; negative”; the mutagenic call (Test System: AMES SALMONELLA TYPHIMURIUM, Strain/Indicator: TA97A, Metabolic Activation: NONE, Method: PREINCUBATION) was “inactive; negative”; the mutagenic call (Test System: AMES SALMONELLA TYPHIMURIUM, Strain/Indicator: TA97A, Metabolic Activation: RAT, LIVER, S-9, AROCLOR 1254, Method: PREINCUBATION) is “inactive; negative”; the mutagenic call under setting [1] was “inactive; negative”; the mutagenic call under setting [2] was “inactive; negative”; the mutagenic call under setting [3] was “inactive; negative”. The mutagenic call is “inactive; negative” under setting [4]; “inactive; negative” (Test System: AMES SALMONELLA TYPHIMURIUM, Strain/Indicator: TA102, Metabolic Activation: NONE, Method: PREINCUBATION); “inactive; negative” (Test System: AMES SALMONELLA TYPHIMURIUM, Strain/Indicator: TA102, Metabolic Activation: RAT, LIVER, S-9, AROCLOR 1254, Method: PREINCUBATION); “inactive; negative” under setting [5]; “inactive; negative” under setting [6]; “inactive; negative” under setting [7]. For the same compound, the mutagenic call is, setting by setting: under setting [8], “inactive; negative”; (Test System: AMES SALMONELLA TYPHIMURIUM, Strain/Indicator: TA1538, Metabolic Activation: NONE, Method: STANDARD PLATE) “inactive; negative”; (Test System: AMES SALMONELLA TYPHIMURIUM, Strain/Indicator: TA1538, Metabolic Activation: RAT, LIVER, S-9, AROCLOR 1254, Method: STANDARD PLATE) “inactive; negative”; (Test System: E. COLI, Strain/Indicator: WP2, Metabolic Activation: NONE, Method: STANDARD PLATE) “inactive; negative”; (Test System: E. COLI, Strain/Indicator: WP2, Metabolic Activation: RAT, LIVER, S-9, AROCLOR 1254, Method: STANDARD PLATE) “inactive; negative”.

In the case of `CC1(S(=O)(=O)O)CC(=O)c2ccccc2C1=O` (stereo not given) (tested in a mixture with another compound), the mutagenic call is “inactive; negative” (Test System: AMES SALMONELLA TYPHIMURIUM, Strain/Indicator: TA98, Metabolic Activation: NONE, Method: SPIRAL ASSAY); “inactive; negative” under setting [1]; “inactive; negative” (Test System: AMES SALMONELLA TYPHIMURIUM, Strain/Indicator: TA98, Metabolic Activation: RAT, LIVER, S-9, AROCLOR 1254, Method: SPIRAL ASSAY); “active; positive” under setting [2]; “inactive; negative” (Test System: AMES SALMONELLA TYPHIMURIUM, Strain/Indicator: TA100, Metabolic Activation: NONE, Method: SPIRAL ASSAY); “inactive; negative” under setting [3]. The mutagenic call is, setting by setting: (Test System: AMES SALMONELLA TYPHIMURIUM, Strain/Indicator: TA100, Metabolic Activation: RAT, LIVER, S-9, AROCLOR 1254, Method: SPIRAL ASSAY) “inactive; negative”; under setting [4], “inactive; negative”; (Test System: AMES SALMONELLA TYPHIMURIUM, Strain/Indicator: TA1535, Metabolic Activation: NONE, Method: SPIRAL ASSAY) “inactive; negative”; under setting [5], “inactive; negative”; (Test System: AMES SALMONELLA TYPHIMURIUM, Strain/Indicator: TA1535, Metabolic Activation: RAT, LIVER, S-9, AROCLOR 1254, Method: SPIRAL ASSAY) “inactive; negative”; under setting [6], “inactive; negative”. Also, the mutagenic call is, setting by setting: (Test System: AMES SALMONELLA TYPHIMURIUM, Strain/Indicator: TA1537, Metabolic Activation: NONE, Method: SPIRAL ASSAY) “inactive; negative”; under setting [7], “inactive; negative”; (Test System: AMES SALMONELLA TYPHIMURIUM, Strain/Indicator: TA1537, Metabolic Activation: RAT, LIVER, S-9, AROCLOR 1254, Method: SPIRAL ASSAY) “inactive; negative”; under setting [8], “inactive; negative”.

For the compound `CCOC(=O)CC(SP(=O)(OC)OC)C(=O)OCC` (stereo not given), the mutagenic call by setting is: (End Point: IN VITRO CHROMOSOMAL ABERRATIONS, Test System: CHO CELLS, Metabolic Activation: NONE) “inactive; negative”; (Test System: AMES SALMONELLA TYPHIMURIUM, Strain/Indicator: TA97, Metabolic Activation: HAMSTER, LIVER, S-9, AROCLOR 1254 (10 OR 30%), Method: PREINCUBATION) “inactive; negative”; (Test System: AMES SALMONELLA TYPHIMURIUM, Strain/Indicator: TA97, Metabolic Activation: NONE, Method: PREINCUBATION) “inactive; negative”; (Test System: AMES SALMONELLA TYPHIMURIUM, Strain/Indicator: TA97, Metabolic Activation: RAT, LIVER, S-9, AROCLOR 1254 (10 OR 30%), Method: PREINCUBATION) “inactive; negative”; (Test System: AMES SALMONELLA TYPHIMURIUM, Strain/Indicator: TA98, Metabolic Activation: HAMSTER, LIVER, S-9, AROCLOR 1254 (10 OR 30%), Method: PREINCUBATION) “inactive; negative”; (Test System: AMES SALMONELLA TYPHIMURIUM, Strain/Indicator: TA98, Metabolic Activation: NONE, Method: PREINCUBATION) “inactive; negative”. The mutagenic call under setting [1] was “inactive; negative”; the mutagenic call (Test System: AMES SALMONELLA TYPHIMURIUM, Strain/Indicator: TA98, Metabolic Activation: RAT, LIVER, S-9, AROCLOR 1254 (10 OR 30%), Method: PREINCUBATION) was “inactive; negative”; the mutagenic call (Test System: AMES SALMONELLA TYPHIMURIUM, Strain/Indicator: TA98, Metabolic Activation: RAT, LIVER, S-9, Method: STANDARD PLATE) is “active; positive”; the mutagenic call (Test System: AMES SALMONELLA TYPHIMURIUM, Strain/Indicator: TA100, Metabolic Activation: HAMSTER, LIVER, S-9, AROCLOR 1254 (10 OR 30%), Method: PREINCUBATION) was “inactive; negative”; the mutagenic call (Test System: AMES SALMONELLA TYPHIMURIUM, Strain/Indicator: TA100, Metabolic Activation: NONE, Method: PREINCUBATION) was “inactive; negative”; the mutagenic call under setting [3] is “active; positive”. Besides, the mutagenic call was “inactive; negative” (Test System: AMES SALMONELLA TYPHIMURIUM, Strain/Indicator: TA100, Metabolic Activation: RAT, LIVER, S-9, AROCLOR 1254 (10 OR 30%), Method: PREINCUBATION); “inactive; negative” (Test System: AMES SALMONELLA TYPHIMURIUM, Strain/Indicator: TA100, Metabolic Activation: RAT, LIVER, S-9, Method: STANDARD PLATE); “inactive; negative” (Test System: AMES SALMONELLA TYPHIMURIUM, Strain/Indicator: TA1535, Metabolic Activation: HAMSTER, LIVER, S-9, AROCLOR 1254 (10 OR 30%), Method: PREINCUBATION); “inactive; negative” (Test System: AMES SALMONELLA TYPHIMURIUM, Strain/Indicator: TA1535, Metabolic Activation: NONE, Method: PREINCUBATION); “inactive; negative” (Test System: AMES SALMONELLA TYPHIMURIUM, Strain/Indicator: TA1535, Metabolic Activation: RAT, LIVER, S-9, AROCLOR 1254 (10 OR 30%), Method: PREINCUBATION).

These data come from PubChem BioAssay AID1259407 (Chemical Carcinogenesis Research Information System (CCRIS), 2018).
